According to the NIST ThermoML archive (doi:10.1021/je700260f):

Conditions: 293.15 K, Liquid, Vibrating tube method

FC(C(F)(F)F)C(F)(F)F [1,1,1,2,3,3,3-heptafluoropropane]
Conditions	mass density [kg/m3]
11786 kPa	1474.1
11826 kPa	1474.2
11860 kPa	1474.3
11894 kPa	1474.6
11934 kPa	1474.7
11967 kPa	1474.9
12017 kPa	1475.1
12045 kPa	1475.2
12079 kPa	1475.4
12119 kPa	1475.5
12156 kPa	1475.8
12195 kPa	1475.9
12235 kPa	1476.1
12280 kPa	1476.3
12314 kPa	1476.4
12354 kPa	1476.7
12388 kPa	1476.9
12422 kPa	1476.9
12468 kPa	1477.1
12502 kPa	1477.4
12549 kPa	1477.5
12591 kPa	1477.7
12626 kPa	1477.9
12670 kPa	1478
12710 kPa	1478.2
12745 kPa	1478.3
12888 kPa	1479
12980 kPa	1479.5
13020 kPa	1479.6
13072 kPa	1479.9
13099 kPa	1480
13131 kPa	1480.1
13163 kPa	1480.3
13195 kPa	1480.5
13233 kPa	1480.6
13264 kPa	1480.7
13307 kPa	1480.8
13344 kPa	1481.1
13371 kPa	1481.1
13408 kPa	1481.4
13440 kPa	1481.4
13489 kPa	1481.8
13521 kPa	1481.8
13564 kPa	1482
13606 kPa	1482.2
13649 kPa	1482.4
13687 kPa	1482.5
13719 kPa	1482.6
13758 kPa	1482.8
13797 kPa	1482.9
13824 kPa	1483.2
13857 kPa	1483.3
13891 kPa	1483.4
13930 kPa	1483.6
13963 kPa	1483.7
14065 kPa	1484.2
14101 kPa	1484.3
14128 kPa	1484.5
14165 kPa	1484.6
14192 kPa	1484.8
14223 kPa	1484.9
14249 kPa	1484.9
14285 kPa	1485
14316 kPa	1485.3
14339 kPa	1485.3
14370 kPa	1485.5
14403 kPa	1485.6
14431 kPa	1485.7
14462 kPa	1485.9
14489 kPa	1486
14520 kPa	1486.2
14557 kPa	1486.3
14598 kPa	1486.4
14635 kPa	1486.6
14673 kPa	1486.7
14705 kPa	1487
14732 kPa	1486.9
14759 kPa	1487.1
14795 kPa	1487.3
14831 kPa	1487.5
14872 kPa	1487.5
14913 kPa	1487.8
14940 kPa	1487.9
14973 kPa	1488
15005 kPa	1488.2
15038 kPa	1488.2
15080 kPa	1488.6
15103 kPa	1488.6
15144 kPa	1488.7
15181 kPa	1488.9
15209 kPa	1488.8
15237 kPa	1489.1
15270 kPa	1489.2
15298 kPa	1489.5
15335 kPa	1489.4
15363 kPa	1489.7
15398 kPa	1489.7
15425 kPa	1489.9
15467 kPa	1490.1
15504 kPa	1490.2
15527 kPa	1490.4
15569 kPa	1490.6
15611 kPa	1490.8
15639 kPa	1490.9
15672 kPa	1490.8
15719 kPa	1491.1
15747 kPa	1491.3
15777 kPa	1491.4
15814 kPa	1491.4
15837 kPa	1491.6
15880 kPa	1491.9
15913 kPa	1492
15942 kPa	1492.2
15975 kPa	1492.2
16018 kPa	1492.4
16046 kPa	1492.3
16079 kPa	1492.7
16118 kPa	1492.8
16153 kPa	1493
16181 kPa	1493.1
16215 kPa	1493.2
16244 kPa	1493.2
16277 kPa	1493.6
16315 kPa	1493.7
16344 kPa	1493.7
16377 kPa	1493.9
16411 kPa	1493.9
16446 kPa	1494.1
16474 kPa	1494.1
16503 kPa	1494.3
16532 kPa	1494.4
16734 kPa	1495.3
16772 kPa	1495.4
16831 kPa	1495.6
16865 kPa	1495.9
16904 kPa	1496
16934 kPa	1496.2
16964 kPa	1496.2
16998 kPa	1496.3
17038 kPa	1496.5
17068 kPa	1496.6
17113 kPa	1496.7
17158 kPa	1497
17183 kPa	1497.1
17228 kPa	1497.2
17263 kPa	1497.4
17293 kPa	1497.5
17334 kPa	1497.7
17375 kPa	1497.8
17405 kPa	1498
17450 kPa	1498.2
17485 kPa	1498.2
17520 kPa	1498.5
17555 kPa	1498.5
17654 kPa	1498.9
17694 kPa	1499.1
17726 kPa	1499.2
17756 kPa	1499.4
17801 kPa	1499.4
17831 kPa	1499.5
17856 kPa	1499.6
17902 kPa	1499.9
17933 kPa	1499.9
17969 kPa	1500.2
18004 kPa	1500.4
18044 kPa	1500.5
18075 kPa	1500.4
18124 kPa	1500.8
18164 kPa	1500.9
18194 kPa	1501.1
18235 kPa	1501.3
18276 kPa	1501.4
18313 kPa	1501.5
18349 kPa	1501.6
18391 kPa	1501.8
18428 kPa	1502
18459 kPa	1502
18502 kPa	1502.3
18544 kPa	1502.5
18574 kPa	1502.5
18611 kPa	1502.7
18650 kPa	1502.7
18678 kPa	1502.9
18720 kPa	1503.1
18753 kPa	1503.1
18785 kPa	1503.3
18822 kPa	1503.5
18859 kPa	1503.7
18888 kPa	1503.6
18925 kPa	1503.8
18953 kPa	1503.9
18981 kPa	1504.1
19018 kPa	1504.2
19055 kPa	1504.4
19084 kPa	1504.5
19116 kPa	1504.5
19145 kPa	1504.6
19183 kPa	1504.8
19210 kPa	1505
19243 kPa	1505
19282 kPa	1505.2
19320 kPa	1505.4
19349 kPa	1505.5
19392 kPa	1505.6
19430 kPa	1505.9
19460 kPa	1505.8
